Legend:
[1] = biological target: Cyclin-dependent kinase 18 (Homo sapiens) (UniProt Q07002); test: Inhibition of wild-type human full length PCTK3 (M3 to F474 residues) expressed in bacterial expression system at 1 uM by Kinomescan method relative to control
[2] = biological target: 5'-AMP-activated protein kinase catalytic subunit alpha-1 (Homo sapiens) (UniProt Q13131); test: Inhibition of wild-type human partial length AMPK alpha1 (M1 to E306 residues) expressed in bacterial expression system at 1 uM by Kinomescan method relative to control
[3] = biological target: Ephrin type-B receptor 1 (Homo sapiens) (UniProt P54762); test: Inhibition of wild-type human partial length EPHB1 (P589 to T911 residues) expressed in bacterial expression system at 1 uM by Kinomescan method relative to control
[4] = system: Epidermal growth factor receptor (Homo sapiens), P00533 [UNDEFINED MUTATION]; test: Inhibition of human partial length EGFR L747-T751del/Sins mutant expressed in bacterial expression system at 1 uM by Kinomescan method relative to control
[5] = biological target: Leucine-rich repeat serine/threonine-protein kinase 2 (Homo sapiens) (UniProt Q5S007); test: Inhibition of wild-type human partial length LRRK2 (H970 to E2527 residues) expressed in mammalian expression system at 1 uM by Kinomescan method relative to control
[6] = biological target: Serine/threonine-protein kinase PknB (Mycobacterium tuberculosis) (UniProt P9WI81); test: Inhibition of wild-type Mycobacterium tuberculosis partial length PKNB (M1 to G279 residues) expressed in mammalian expression system at 1 uM by Kinomescan method relative to control
[7] = biological target: Serine/threonine-protein kinase 24 (Homo sapiens) (UniProt Q9Y6E0); test: Inhibition of wild-type human partial length MST3 (A30 to S311 residues) expressed in bacterial expression system at 1 uM by Kinomescan method relative to control
[8] = biological target: Peripheral plasma membrane protein CASK (Homo sapiens) (UniProt O14936); test: Inhibition of wild-type human partial length CASK (M1 to H315 residues) expressed in mammalian expression system at 1 uM by Kinomescan method relative to control
[9] = system: Tyrosine-protein kinase ABL1 (Homo sapiens), P00519 [Q252H]; test: Inhibition of human phosphorylated ABL1 Q252H mutant expressed in mammalian expression system at 1 uM by Kinomescan method relative to control
[10] = system: Receptor-type tyrosine-protein kinase FLT3 (Homo sapiens), P36888 [D835H]; test: Inhibition of human partial length FLT3 D835H mutant (V592 to Y969 residues) expressed in bacterial expression system at 1 uM by Kinomescan method relative to control
[11] = system: eIF-2-alpha kinase GCN2 (Homo sapiens), Q9P2K8 [S808G]; test: Inhibition of wild-type human partial length GCN2 kinase domain 2 (R585 to T1018 residues) S808G mutant expressed in bacterial expression system at 1 uM by Kinomescan method relative to control
[12] = system: Tyrosine-protein kinase ABL1 (Homo sapiens), P00519 [H396P]; test: Inhibition of human phosphorylated ABL1 H396P mutant (S229 to K512 residues) expressed in mammalian expression system at 1 uM by Kinomescan method relative to control
[13] = biological target: Serine/threonine-protein kinase BRSK2 (Homo sapiens) (UniProt Q8IWQ3); test: Inhibition of wild-type human full length BRSK2 (M1 to L674 residues) expressed in bacterial expression system at 10 uM by Kinomescan method relative to control
[14] = biological target: Proto-oncogene tyrosine-protein kinase ROS (Homo sapiens) (UniProt P08922); test: Inhibition of wild-type human partial length ROS1 (A1921 to N2240 residues) expressed in bacterial expression system at 10 uM by Kinomescan method relative to control
[15] = biological target: Vascular endothelial growth factor receptor 2 (Homo sapiens) (UniProt P35968); test: Inhibition of wild-type human partial length VEGFR2 (R787 to P1253 residues) expressed in mammalian expression system at 10 uM by Kinomescan method relative to control
[16] = biological target: Mitogen-activated protein kinase 1 (Homo sapiens) (UniProt P28482); test: Inhibition of wild-type human full length ERK2 (M1 to S360 residues) expressed in bacterial expression system at 10 uM by Kinomescan method relative to control
[17] = biological target: Serine/threonine-protein kinase DCLK1 (Homo sapiens) (UniProt O15075); test: Inhibition of wild-type human partial length DCAMKL1 (L270 to A662 residues) expressed in mammalian expression system at 10 uM by Kinomescan method relative to control
[18] = biological target: Serine/threonine-protein kinase WNK4 (Homo sapiens) (UniProt Q96J92); test: Inhibition of wild-type human partial length WNK4 (A31 to D461 residues) expressed in mammalian expression system at 10 uM by Kinomescan method relative to control
[19] = biological target: Mitogen-activated protein kinase kinase kinase kinase 1 (Homo sapiens) (UniProt Q92918); test: Inhibition of wild-type human full length HPK1 (M1 to R799 residues) expressed in bacterial expression system at 10 uM by Kinomescan method relative to control
[20] = biological target: cAMP-dependent protein kinase catalytic subunit alpha (Homo sapiens) (UniProt P17612); test: Inhibition of wild-type human partial length PKAC-alpha (G10 to F351 residues) expressed in bacterial expression system at 10 uM by Kinomescan method relative to control
[21] = biological target: Proto-oncogene tyrosine-protein kinase receptor Ret (Homo sapiens) (UniProt P07949); test: Inhibition of wild-type human partial length RET (E713 to D1014 residues) expressed in bacterial expression system at 10 uM by Kinomescan method relative to control
[22] = biological target: Mitogen-activated protein kinase kinase kinase 10 (Homo sapiens) (UniProt Q02779); test: Inhibition of wild-type human partial length MLK2 (V52 to W380 residues) expressed in bacterial expression system at 10 uM by Kinomescan method relative to control
[23] = system: Epidermal growth factor receptor (Homo sapiens), P00533 [UNDEFINED MUTATION]; test: Inhibition of human partial length EGFR L747-E749del/A750P mutant expressed in bacterial expression system at 10 uM by Kinomescan method relative to control
[24] = biological target: Dual specificity mitogen-activated protein kinase kinase 6 (Homo sapiens) (UniProt P52564); test: Inhibition of wild-type human partial length MEK6 (K36 to D334 residues) expressed in bacterial expression system at 10 uM by Kinomescan method relative to control
[25] = biological target: Serine/threonine-protein kinase ULK1 (Homo sapiens) (UniProt O75385); test: Inhibition of wild-type human partial length ULK1 (M1 to T309 residues) expressed in mammalian expression system at 10 uM by Kinomescan method relative to control
[26] = biological target: Mitogen-activated protein kinase kinase kinase 15 (Homo sapiens) (UniProt Q6ZN16); test: Inhibition of wild-type human partial length MAP3K15 (T625 to L932 residues) expressed in mammalian expression system at 10 uM by Kinomescan method relative to control
[27] = biological target: Serine/threonine-protein kinase 26 (Homo sapiens) (UniProt Q9P289); test: Inhibition of wild-type human full length MST4 (M1 to P416 residues) expressed in mammalian expression system at 10 uM by Kinomescan method relative to control

Chain of Epidermal growth factor receptor (Homo sapiens), P00533 [UNDEFINED MUTATION] (P00533 whole entry, looked up, stated change not applied, the tested form may be a part): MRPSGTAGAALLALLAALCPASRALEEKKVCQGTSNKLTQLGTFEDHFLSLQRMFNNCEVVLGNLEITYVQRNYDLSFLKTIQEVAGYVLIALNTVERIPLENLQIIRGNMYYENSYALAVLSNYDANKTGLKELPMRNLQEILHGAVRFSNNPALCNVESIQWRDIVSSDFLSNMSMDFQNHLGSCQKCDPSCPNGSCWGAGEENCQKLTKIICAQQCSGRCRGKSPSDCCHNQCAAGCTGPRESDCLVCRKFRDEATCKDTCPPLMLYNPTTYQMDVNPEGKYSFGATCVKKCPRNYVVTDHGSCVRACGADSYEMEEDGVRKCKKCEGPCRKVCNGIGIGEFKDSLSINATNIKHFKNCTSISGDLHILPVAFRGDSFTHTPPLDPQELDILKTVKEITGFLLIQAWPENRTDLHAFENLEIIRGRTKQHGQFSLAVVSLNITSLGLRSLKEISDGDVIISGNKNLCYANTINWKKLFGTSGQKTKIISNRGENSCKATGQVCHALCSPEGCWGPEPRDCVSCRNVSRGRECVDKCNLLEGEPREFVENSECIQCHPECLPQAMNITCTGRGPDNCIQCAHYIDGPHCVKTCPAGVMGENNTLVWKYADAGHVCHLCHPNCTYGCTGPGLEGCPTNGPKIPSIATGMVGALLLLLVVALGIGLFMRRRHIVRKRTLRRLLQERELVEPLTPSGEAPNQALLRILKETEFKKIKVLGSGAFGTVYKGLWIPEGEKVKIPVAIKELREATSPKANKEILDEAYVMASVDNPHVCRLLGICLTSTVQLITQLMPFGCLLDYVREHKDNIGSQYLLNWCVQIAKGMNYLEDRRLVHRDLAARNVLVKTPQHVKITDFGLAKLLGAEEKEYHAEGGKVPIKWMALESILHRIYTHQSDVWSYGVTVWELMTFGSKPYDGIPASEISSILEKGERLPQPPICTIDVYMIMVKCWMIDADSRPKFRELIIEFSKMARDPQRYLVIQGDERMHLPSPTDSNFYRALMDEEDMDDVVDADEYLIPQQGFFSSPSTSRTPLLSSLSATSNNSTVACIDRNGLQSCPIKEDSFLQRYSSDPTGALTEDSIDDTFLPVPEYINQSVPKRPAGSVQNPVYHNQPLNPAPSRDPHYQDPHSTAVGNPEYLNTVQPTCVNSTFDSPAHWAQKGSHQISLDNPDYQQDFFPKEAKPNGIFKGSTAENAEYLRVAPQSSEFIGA
Chain of Serine/threonine-protein kinase WNK4 (Homo sapiens) (Q96J92 whole entry, the tested form may be a part): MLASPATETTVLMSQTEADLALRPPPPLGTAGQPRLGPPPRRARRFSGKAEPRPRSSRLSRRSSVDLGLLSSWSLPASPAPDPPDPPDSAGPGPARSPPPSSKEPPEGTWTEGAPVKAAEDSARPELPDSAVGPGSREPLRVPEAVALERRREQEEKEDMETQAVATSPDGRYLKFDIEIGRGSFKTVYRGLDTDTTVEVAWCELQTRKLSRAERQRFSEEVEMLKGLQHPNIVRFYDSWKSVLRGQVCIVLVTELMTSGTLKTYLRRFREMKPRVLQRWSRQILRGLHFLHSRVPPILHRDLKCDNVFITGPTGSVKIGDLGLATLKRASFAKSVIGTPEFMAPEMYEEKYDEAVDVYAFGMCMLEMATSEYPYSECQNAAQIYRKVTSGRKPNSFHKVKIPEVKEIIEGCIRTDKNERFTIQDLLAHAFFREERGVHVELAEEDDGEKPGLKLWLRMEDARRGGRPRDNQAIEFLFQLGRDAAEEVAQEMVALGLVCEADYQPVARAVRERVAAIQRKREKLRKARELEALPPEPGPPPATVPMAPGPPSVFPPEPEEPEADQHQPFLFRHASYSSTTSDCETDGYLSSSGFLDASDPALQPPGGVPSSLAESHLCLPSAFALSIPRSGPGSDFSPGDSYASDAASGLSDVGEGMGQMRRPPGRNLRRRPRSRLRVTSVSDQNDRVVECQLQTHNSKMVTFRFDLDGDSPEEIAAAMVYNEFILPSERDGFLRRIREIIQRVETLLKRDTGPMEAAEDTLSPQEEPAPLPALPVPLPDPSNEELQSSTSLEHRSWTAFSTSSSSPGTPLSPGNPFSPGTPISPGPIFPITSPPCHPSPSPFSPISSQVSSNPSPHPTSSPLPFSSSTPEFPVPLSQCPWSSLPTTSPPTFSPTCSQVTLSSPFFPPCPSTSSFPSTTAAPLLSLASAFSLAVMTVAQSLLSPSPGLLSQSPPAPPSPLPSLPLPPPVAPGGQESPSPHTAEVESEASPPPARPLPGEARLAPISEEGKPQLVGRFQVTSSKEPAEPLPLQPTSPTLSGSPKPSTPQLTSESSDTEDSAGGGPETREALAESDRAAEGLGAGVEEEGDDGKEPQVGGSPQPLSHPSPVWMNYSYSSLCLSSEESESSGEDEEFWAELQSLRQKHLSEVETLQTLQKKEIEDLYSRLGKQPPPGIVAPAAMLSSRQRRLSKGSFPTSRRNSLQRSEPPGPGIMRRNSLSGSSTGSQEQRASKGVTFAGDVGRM
Chain of Serine/threonine-protein kinase DCLK1 (Homo sapiens) (O15075 whole entry, the tested form may be a part): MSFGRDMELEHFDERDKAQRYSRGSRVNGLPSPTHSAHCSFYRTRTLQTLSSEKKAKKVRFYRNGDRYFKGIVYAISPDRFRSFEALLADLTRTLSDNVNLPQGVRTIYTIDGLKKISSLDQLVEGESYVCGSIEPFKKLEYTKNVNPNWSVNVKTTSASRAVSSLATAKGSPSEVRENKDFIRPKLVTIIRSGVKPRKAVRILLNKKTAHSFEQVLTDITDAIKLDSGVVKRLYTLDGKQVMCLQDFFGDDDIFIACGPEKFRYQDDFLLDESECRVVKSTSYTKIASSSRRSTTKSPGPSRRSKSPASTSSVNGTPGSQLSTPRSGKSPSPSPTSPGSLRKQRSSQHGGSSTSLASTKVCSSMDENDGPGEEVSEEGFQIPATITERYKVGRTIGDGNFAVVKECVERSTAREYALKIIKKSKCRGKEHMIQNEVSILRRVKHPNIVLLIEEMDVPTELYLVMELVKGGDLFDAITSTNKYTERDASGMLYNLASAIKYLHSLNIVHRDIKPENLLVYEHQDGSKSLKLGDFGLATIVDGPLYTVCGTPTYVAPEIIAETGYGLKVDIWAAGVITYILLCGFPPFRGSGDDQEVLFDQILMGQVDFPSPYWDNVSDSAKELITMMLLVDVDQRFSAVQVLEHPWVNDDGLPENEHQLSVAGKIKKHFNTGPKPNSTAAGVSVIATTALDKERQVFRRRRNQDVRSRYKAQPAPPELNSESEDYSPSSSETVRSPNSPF
Chain of Mitogen-activated protein kinase 1 (Homo sapiens) (P28482 whole entry, the tested form may be a part): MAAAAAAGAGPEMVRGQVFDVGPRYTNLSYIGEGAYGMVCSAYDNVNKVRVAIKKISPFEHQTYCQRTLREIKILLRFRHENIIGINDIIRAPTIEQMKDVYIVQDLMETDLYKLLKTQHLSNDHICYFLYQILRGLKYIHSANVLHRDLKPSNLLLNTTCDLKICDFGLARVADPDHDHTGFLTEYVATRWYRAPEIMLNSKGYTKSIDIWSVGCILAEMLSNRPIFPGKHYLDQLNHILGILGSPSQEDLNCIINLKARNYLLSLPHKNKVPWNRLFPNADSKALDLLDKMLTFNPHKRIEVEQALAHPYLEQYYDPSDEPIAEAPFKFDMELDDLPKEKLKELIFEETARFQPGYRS
Chain of Peripheral plasma membrane protein CASK (Homo sapiens) (O14936 whole entry, the tested form may be a part): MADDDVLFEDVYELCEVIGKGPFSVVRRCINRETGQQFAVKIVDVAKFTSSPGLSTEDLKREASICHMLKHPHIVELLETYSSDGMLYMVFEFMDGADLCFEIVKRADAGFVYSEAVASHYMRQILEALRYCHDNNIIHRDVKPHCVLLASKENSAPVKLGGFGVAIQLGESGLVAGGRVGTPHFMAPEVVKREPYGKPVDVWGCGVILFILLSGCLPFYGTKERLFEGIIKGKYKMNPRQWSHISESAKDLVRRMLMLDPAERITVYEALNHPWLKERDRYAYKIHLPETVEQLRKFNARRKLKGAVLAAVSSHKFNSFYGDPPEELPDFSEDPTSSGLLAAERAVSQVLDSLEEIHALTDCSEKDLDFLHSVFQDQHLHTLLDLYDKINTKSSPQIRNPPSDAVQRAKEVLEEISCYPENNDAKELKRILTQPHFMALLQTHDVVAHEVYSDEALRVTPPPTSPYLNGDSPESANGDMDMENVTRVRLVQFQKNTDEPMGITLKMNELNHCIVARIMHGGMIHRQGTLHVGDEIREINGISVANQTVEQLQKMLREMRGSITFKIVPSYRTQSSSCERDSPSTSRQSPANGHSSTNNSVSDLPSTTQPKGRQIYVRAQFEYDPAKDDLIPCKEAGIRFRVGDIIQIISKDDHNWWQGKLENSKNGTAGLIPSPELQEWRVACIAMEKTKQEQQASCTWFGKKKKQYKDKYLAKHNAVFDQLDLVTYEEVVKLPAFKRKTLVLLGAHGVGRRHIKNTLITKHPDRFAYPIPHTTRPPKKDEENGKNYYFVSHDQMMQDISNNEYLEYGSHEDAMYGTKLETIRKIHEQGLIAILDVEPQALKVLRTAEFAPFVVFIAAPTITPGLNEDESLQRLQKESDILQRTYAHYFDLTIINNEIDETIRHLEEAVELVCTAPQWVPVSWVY
Chain of Serine/threonine-protein kinase 24 (Homo sapiens) (Q9Y6E0 whole entry, looked up, the tested form may be a part): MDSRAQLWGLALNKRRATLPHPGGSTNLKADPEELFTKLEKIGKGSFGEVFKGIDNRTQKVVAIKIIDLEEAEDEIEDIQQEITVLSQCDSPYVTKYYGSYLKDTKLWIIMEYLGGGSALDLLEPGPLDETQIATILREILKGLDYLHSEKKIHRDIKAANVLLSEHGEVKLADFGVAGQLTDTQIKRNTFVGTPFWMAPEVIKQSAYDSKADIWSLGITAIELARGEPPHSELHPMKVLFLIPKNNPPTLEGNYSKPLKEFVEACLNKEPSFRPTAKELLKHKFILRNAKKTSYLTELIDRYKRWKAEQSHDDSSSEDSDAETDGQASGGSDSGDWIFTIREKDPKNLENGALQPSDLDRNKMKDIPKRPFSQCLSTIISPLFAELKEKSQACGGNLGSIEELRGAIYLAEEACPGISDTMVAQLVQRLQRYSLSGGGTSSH

SMILES: O=C(Nc1cccc([C@@H]2CN(c3ncnc4[nH]ccc34)CCN2CCO)c1)Nc1c(F)cccc1N1CCCC1
- inhibition [1]: 97%
- inhibition [2]: 61%
- inhibition [3]: 97%
- inhibition [4]: 76%
- inhibition [5]: 100%
- inhibition [6]: 80%
- inhibition [7]: 73%
- inhibition [8]: 78%
- inhibition [9]: 95%
- inhibition [10]: 9.6%
- inhibition [11]: 95%
- inhibition [12]: 71%

SMILES: O=C(Nc1cccc([C@H]2CCCN(c3ncnc4[nH]ccc34)C2)c1)Nc1ccccc1N1CCCC1
- inhibition [13]: 92%
- inhibition [14]: 72%
- inhibition [15]: 3.5%
- inhibition [16]: 100%
- inhibition [17]: 52%
- inhibition [18]: 87%
- inhibition [19]: 100%
- inhibition [20]: 98%
- inhibition [21]: 0%
- inhibition [22]: 100%
- inhibition [23]: 82%
- inhibition [24]: 86%
- inhibition [25]: 37%
- inhibition [26]: 50%
- inhibition [27]: 62%
